Active and inactive are the calls of the source. The rule behind the calls is not given here.
Experiments:
MDA-MB-231 [1] = experiment: Antiproliferative activity against human MDA-MB-231 cells incubated for 72 hrs by MTT assay; type: functional, cell-based
MCF7 = experiment: Antiproliferative activity against human MCF7 cells incubated for 72 hrs by MTT assay; type: functional, cell-based
A549 [2] = experiment: Antiproliferative activity against human A549 cells incubated for 72 hrs by MTT assay; type: functional, cell-based
[3] = Downregulation of cell surface PD-L1 expression in human MDA-MB-231 cells assessed as mean fluorescence intensity at 5 uM incubated for 24 hrs by phycoerythrin staining based flow cytometry analysis (reference value: 1156); type: functional
[4] = Downregulation of cell surface PD-L1 protein expression in human MDA-MB-231 cells assessed as test to control ratio at 5 uM incubated for 24 hrs by Western blot analysis; type: functional
[5] = Downregulation of cell surface PD-L1 protein expression in human A549 cells assessed as test to control ratio at 5 uM incubated for 24 hrs by Western blot analysis; type: functional
MDA-MB-231 [6] = experiment: Effect on CD274 mRNA expression in human MDA-MB-231 cells at 5 to 10 uM hrs by real-time quantitative-PCR analysis; type: functional, cell-based; settings: dose 5-10 µM
A549 [7] = experiment: Effect on CD274 mRNA expression in human A549 cells at 5 to 10 uM hrs by real-time quantitative-PCR analysis; type: functional, cell-based; settings: dose 5-10 µM
[8] = Downregulation of cell surface PD-L1 expression in human MDA-MB-231 cells assessed as mean fluorescence intensity at 10 uM incubated for 24 hrs by phycoerythrin staining based flow cytometry analysis (reference value: 1156); type: functional
[9] = Downregulation of cell surface PD-L1 protein expression in human MDA-MB-231 cells assessed as test to control ratio at 10 uM incubated for 24 hrs by Western blot analysis; type: functional
[10] = Downregulation of cell surface PD-L1 protein expression in human A549 cells assessed as test to control ratio at 10 uM incubated for 24 hrs by Western blot analysis; type: functional
[11] = Downregulation of cell surface PD-L1 expression in human MDA-MB-231 cells assessed as mean fluorescence intensity at […] incubated for 24 hrs by phycoerythrin staining based flow cytometry analysis (reference value: 1156); type: functional

| Compound | Activity (MDA-MB-231 [1]) | Activity (MCF7) | Activity (A549 [2]) | Flu intensity [3] | T/C [4] | T/C [5] | Activity (MDA-MB-231 [6]) | Activity (A549 [7]) | Flu intensity [8] | T/C [9] | T/C [10] | Flu intensity [11] |
| --- | --- | --- | --- | --- | --- | --- | --- | --- | --- | --- | --- | --- |
| C[C@@H]1OC(=O)/C=C/[C@@H](O)CC[C@H](C)OC(=O)[C@H](n2cnc3ncn4c5c(nc4c32)[C@H](C)OC(=O)/C=C/[C@@H](O)CC[C@H](C)OC(=O)C5)CC1=O | inactive | inactive | inactive |  |  |  |  |  |  |  |  |  |
| C[C@@H]1OC(=O)/C=C/[C@@H](O)CC[C@H](C)OC(=O)Cc2c1nc1c3ncn([C@@H]4O[C@H](CO)[C@@H](O)[C@H]4O)c3ncn21 | inactive | inactive | inactive | 897 | 0.89 | 0.6 | inactive | inactive | 820 | 0.54 | 0.32 |  |
| CN(C)C(=N)NC(=N)N [METFORMIN] |  |  |  |  |  |  |  |  |  |  |  | 1081 |
| C[C@@H]1OC(=O)/C=C/[C@@H](O)CC[C@H](C)OC(=O)[C@H](n2cnc3c2ncn2c4c(nc32)[C@H](C)OC(=O)/C=C/[C@@H](O)CC[C@H](C)OC(=O)C4)CC1=O | inactive | inactive | inactive |  |  |  |  |  |  |  |  |  |
| CO[C@@H]1[C@H](O)[C@@H](CO)O[C@H]1n1cnc2c1ncn1c3c(nc21)[C@H](C)OC(=O)/C=C/[C@@H](O)CC[C@H](C)OC(=O)C3 | inactive | inactive | inactive |  |  |  |  |  |  |  |  |  |

— ChEMBL document CHEMBL5532715, “Rogersonins C-F, 9H-Imidazo[2,1-i]purine-Incorporating Adenine-Polyketide Hybrids from an Ophiocordyceps-Associated Clonostachys rogersoniana” (2024)
